Experimental data taken from patent publication US20120214875A1, “PHENOX[…]” (priority 2011, published 2012).
Where “and” joins values, the source holds several entries; their conditions need not be identical. Equal entries are not always repeated.

Experiments:
[1] = Autosampler re-injection reproducibility of extracted QC samples; assay type: physicochemical; details: for Amount Found: single replicates; for % Difference: 7° C. ± 4° C.
Protocol: (§1) Phenoxybenzamine and the internal standard phenoxybenzamine-d5 were extracted from 0.2 mL of human plasma, using EDTA (potassium K2 salt) as the anticoagulant and containing 1.3% of H3PO4 as stabilizer, by solid phase extraction into 0.8 mL of 0.1% TFA in 80% methanol, followed by dilution with 0.4 mL of 0.1% TFA. An aliquot of this extract was injected into a high performance liquid chromatography system and detected using an API 3000 tandem mass spectrometer with HSID interface and quantitated using peak area ratio method. Method sensitivity and selectivity were achieved by detecting distinct precursor to product ion mass transitions for phenoxybenzamine (304.1→120.0) and the internal standard phenoxybenzamine-d5 (309.1→120.0) at defined retention times under reverse chromatographic conditions.
(§2) Blood plasma was separated from whole blood. The plasma samples should be protected from light and may be stored at −70° C. for use. The plasma samples were thawed in cold tap water and analyzed along with a set of standard samples. All samples were vortexed for about 20 seconds, centrifuged at 3000 rpm for 5 minutes at 4° C.±4° C., and placed in an ice-water bath. 200 uL of plasma was added to polypropylene tubes and kept in ice-water bath. 100 uL of internal standard working solution (40 ng/mL of phenoxybenzamine-d5) was added into all the tubes except those labeled with “BLANK.” 100 uL of 0.1 N HCl in 20% methanol was added to those labeled with BLANK and the tubes were vortexed for about 20 seconds. 400 uL of 1.7% phosphoric acid was added into all tubes. The tubes were vortexed for about 40 seconds and left in an ice-water bath. The Oasis™ HLB 1 cc (30 mg) cartridges (Waters) were washed first with 700 uL methanol and then with 700 uL water. The samples prepared above were then transferred into the cartridges which were then centrifuged at 1000 rpm for 2 minutes at 4° C.±4° C. Cartridges were then first washed with 700 uL water and then washed with 700 uL of 0.1% TFA in 40% methanol. Cartridges were then eluted twice with 400 μL of 0.1% TFA in 80% methanol, and all of the eluates were collected and diluted with 400 μL of 0.1% TFA. The extracted samples were then ready for analysis.
The mean concentration of the aged re-injected samples was compared with the mean concentration of the initial zero hour samples prepared at the same concentration as the QC samples.

[2] = Stability of phenoxybenzamine in various solvents; assay type: physicochemical
Protocol: Various solvents were examined for their abilities to stabilize phenoxybenzamine. The solvents examined were alcohol, acetonitrile (ACN), methanol (MeOH), acidified solvents (e.g., acidified MeOH and acidified ACN). Phenoxybenzamine in these solvents was not stable for 24 hr at 4° C. The stability of phenoxybenzamine was examined in acidified ACN with 0.5%, 1% and 2% formic acid (“FA”). Phenoxybenzamine was stable for ˜3 hr at RT and 4° C. The measured amount of phenoxybenzamine for neat standard in 0.5% FA in ACN was higher than those using 1% FA in ACN, and 2% FA in ACN.
The stability of phenoxybenzamine was examined in acidified MeOH (80% MeOH containing 0.1% TFA). Phenoxybenzamine was stable for at least 48 hours at 4° C., −25° C. and −70° C.
(§3) The stability of phenoxybenzamine in acidified plasma samples containing 1% FA, 1% H3PO4, 2% H3PO4 or 0.1N HCl was tested.

[3] = Stability of phenoxybenzamine in whole blood; assay type: in vitro ADME, human; details: for WB Sample Amount Found, Mean: mean of six; for WB Sample Amount Found: single replicates
Protocol: Stability of phenoxybenzamine in human whole blood was determined by spiking phenoxybenzamine into fresh human whole blood. This was followed by the preparation of the whole blood samples into two sets: one set was immediately processed into plasma and the other set was stored at 4° C.±4° C. for up to two hours and then processed into plasma. Samples were extracted in replicates of six with control blank and analyzed.

[4] = Processed sample integrity; assay type: physicochemical; details: for Amount Found: single replicates; for % Difference: ~112 hours vs 0.0 hours, 4° C. ± 4° C.
Protocol: as §1, §2
The mean concentration at each time-point was compared with the mean concentration of the zero hour samples.

[5] = Stability of phenoxybenzamine in acidified plasma; assay type: in vitro ADME
Protocol: as §3

[6] = Stability of phenoxybenzamine in neat solution; assay type: physicochemical
Protocol: The stability of phenoxybenzamine in neat solutions was examined. The measured amount of phenoxybenzamine in neat solution dropped ˜90% in 24 hours at ambient temperature but ˜20% at 4° C.

[7] = QC HIGH 19.232 ng/mL added, 0.0 hours
[8] = QC HIGH 19.232 ng/mL added, ~75 hours at 7° C. ± 4° C.
[9] = QC HIGH 19.232 ng/mL added, ~110 hours at 7° C. ± 4° C.
[10] = QC LOW 0.601 ng/mL added, 0.0 hours
[11] = QC LOW 0.601 ng/mL added, ~110 hours at 7° C. ± 4° C.
[12] = human whole blood, ~2 hours at 4° C.±4° C.
[13] = QC HIGH 19.232 ng/mL added, ~112 hours at 4° C. ± 4° C.
[14] = QC LOW 0.601 ng/mL added, ~112 hours at 4° C. ± 4° C.

For CC(COc1ccccc1)N(CCCl)Cc1ccccc1 (racemic) [phenoxybenzamine, (RS)—N-benzyl-N-(2-chloroethyl)-1-phenoxy-propan-2-amine], the “Amount Found, Mean” value [1, 7] was 18.178 ng/mL, the “Amount Found” value [1, 7] was 18.305 ng/mL and 18.069 ng/mL and 18.161 ng/mL and the “Amount Found, Mean” value [1, 8] was 18.411 ng/mL. For the same compound, the “Amount Found” value [1, 8] was 18.066 ng/mL and 18.686 ng/mL and 18.482 ng/mL, the “Amount Found, Mean” value [1, 9] was 18.423 ng/mL and the “Amount Found” value [1, 9] was 18.179 ng/mL and 18.435 ng/mL and 18.656 ng/mL. The “% Difference” value ([1]; QC HIGH, ~75 hours vs 0.0 hours) was 1.3%, the “% Difference” value ([1]; QC HIGH, ~110 hours vs 0.0 hours) was 1.3% and the “Amount Found, Mean” value [1, 10] was 0.601 ng/mL. The “Amount Found” value [1, 10] was 0.590 ng/mL and 0.603 ng/mL and 0.610 ng/mL, the “Amount Found, Mean” value ([1]; QC LOW 0.601 ng/mL added, ~75 hours at 7° C. ± 4° C.) was 0.615 ng/mL and the “Amount Found” value ([1]; QC LOW 0.601 ng/mL added, ~75 hours in autosampler at 7° C. ± 4° C.) was 0.610 ng/mL and 0.646 ng/mL and 0.590 ng/mL. The “Amount Found, Mean” value [1, 11] was 0.603 ng/mL, the “Amount Found” value [1, 11] was 0.602 ng/mL and 0.612 ng/mL and 0.595 ng/mL and the “% Difference” value ([1]; QC LOW, ~75 hours vs 0.0 hours) was 2.4%. For the same compound, the “% Difference” value ([1]; QC LOW, ~110 hours vs 0.0 hours) was 0.3%, the “time for which extracted samples can be re-injected” value ([1]; extracted samples stored in autosampler at 7° C.±4° C.) was “up to 110 hours” and the “measured amount for neat standard in 0.5% FA in ACN compared with 1% FA and 2% FA in ACN” value ([2]; 0.5% FA in ACN vs 1% and 2% FA in ACN) was “higher”. For the same compound, the “drop, autosampler stability” value ([2]; 0.5% FA in ACN, ~24 hr) was ~70%, the “autosampler re-injection stability, time stable” value ([2]; 80% MeOH containing 0.1% TFA) was “at least 24 hours” and the “time stable in acidified MeOH” value ([2]; 80% MeOH containing 0.1% TFA, 4° C., −25° C. and −70° C.) was “at least 48 hours”. The “time stable in acidified ACN” value ([2]; ACN with 0.5%, 1% and 2% formic acid, RT and 4° C.) was ~3 h, the stability in solvents ([2]; alcohol, acetonitrile, methanol, acidified MeOH and acidified ACN, 24 hr at 4° C.) was “not stable” and the “WB Sample Amount Found, Mean” value ([3]; human whole blood, time 0.0 hours) was 3.357 ng/mL. The “WB Sample Amount Found” value ([3]; human whole blood, time 0.0 hours, processed immediately into plasma) was 3.379 ng/mL and 3.325 ng/mL and 3.381 ng/mL and 3.387 ng/mL and 3.305 ng/mL and 3.365 ng/mL, the “WB Sample Amount Found, Mean” value [3, 12] was 3.297 ng/mL and the “WB Sample Amount Found” value [3, 12] was 3.315 ng/mL and 3.330 ng/mL and 3.365 ng/mL and 3.328 ng/mL and 3.283 ng/mL and 3.160 ng/mL. For the same compound, the “% Difference” value ([3]; human whole blood, ~2 hours vs 0.0 hours, 4° C.±4° C.) was −1.8%, the “time stable in whole blood” value ([3]; stored at 4° C.±4° C.) was “up to 2 hours” and the “time for which integrity of processed samples is not affected” value ([4]; LOW and HIGH concentrations, 4° C.±4° C.) was “up to 112 hours”. For the same compound, the “Amount Found, Mean” value [4, 7] was 18.178 ng/mL, the “Amount Found” value [4, 7] was 18.305 ng/mL and 18.069 ng/mL and 18.161 ng/mL and the “Amount Found, Mean” value [4, 13] was 18.214 ng/mL. For the same compound, the “Amount Found” value [4, 13] was 18.209 ng/mL and 18.214 ng/mL and 18.220 ng/mL, the “% Difference” value ([4]; QC HIGH) was 0.2% and the “Amount Found, Mean” value [4, 10] was 0.601 ng/mL. The “Amount Found” value [4, 10] was 0.590 ng/mL and 0.603 ng/mL and 0.610 ng/mL, the “Amount Found, Mean” value [4, 14] was 0.583 ng/mL and the “Amount Found” value [4, 14] was 0.574 ng/mL and 0.590 ng/mL and 0.586 ng/mL. The “% Difference” value ([4]; QC LOW) was −2.9%, the “stability in acidified plasma” value ([5]; plasma containing 0.1N HCl) was “stable” and the “stability in acidified plasma” value ([5]; plasma containing 1% FA) was “stable except for 1% FA”. The “stability in acidified plasma” value ([5]; plasma containing 1% H3PO4) was “stable”, the “stability in acidified plasma” value ([5]; plasma containing 2% H3PO4) was “stable” and the “drop of measured amount in neat solution” value ([6]; 24 hours at 4° C.) was ~20%. The “drop of measured amount in neat solution” value ([6]; 24 hours at ambient temperature) was ~90%.
